From US9474790B2, “Stable, protracted GLP-1/glucagon receptor co-agonists for medical use” (Novo Nordisk A/S, priority 2013, dated 2016)
Numbered stars: 1 amine (or outer) side, 2 acyl side, 3 side chain; on linkers, the order of the positions; unused ones are H or OH. Bridge positions count the residues as written; N and C are the ends. Square brackets hold non-standard residues; d marks the D form. Side chains are listed from the residue outwards. Peptide text beside a SMILES is read from it. I, II: the chains in the order shown. * marks the point of attachment. C18 diacid = O=C(O)CCCCCCCCCCCCCCCCC(=O)*; γGlu = O=C(O)[C@H](CCC(=O)[*:2])N[*:1]; AEEA = NCCOCCOCC(=O)O; Aib = CC(C)(N)C(=O)O

What follows are compounds tested against T1, human GLP-1 receptor (Homo sapiens, UniProt P43220) (assay: GLP-1 receptor binding, 125I-GLP-1 displacement SPA on isolated membranes). Conditions: displacement of 125I-GLP-1 from membranes; read-out: IC50 GLP-1R.
T1 construct: expressed in transfected cells; host or cells: BHK cells (parent BHKTS13), clone FCW467-12A/KZ10-1, with CRE luciferase
T1 sequence (P43220 24-463): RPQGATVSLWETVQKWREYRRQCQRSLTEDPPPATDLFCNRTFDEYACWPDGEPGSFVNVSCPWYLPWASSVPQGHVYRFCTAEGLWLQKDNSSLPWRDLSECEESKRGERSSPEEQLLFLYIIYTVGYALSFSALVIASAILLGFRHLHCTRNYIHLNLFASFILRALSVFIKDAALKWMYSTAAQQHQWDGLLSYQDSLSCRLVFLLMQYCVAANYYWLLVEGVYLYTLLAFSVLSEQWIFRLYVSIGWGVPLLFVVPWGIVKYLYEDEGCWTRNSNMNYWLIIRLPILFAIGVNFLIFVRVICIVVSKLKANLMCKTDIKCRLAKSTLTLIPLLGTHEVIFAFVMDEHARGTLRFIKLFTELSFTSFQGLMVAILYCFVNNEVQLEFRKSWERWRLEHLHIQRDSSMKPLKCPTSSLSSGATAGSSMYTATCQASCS
Method in brief: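 SPA displacement of 125I-GLP-1(7-36)NH2 from membranes of BHK cells expressing human GLP-1 receptor, with WGA beads, in 50 mM HEPES, 5 mM EGTA, 5 mM MgCl2, 0.005% Tween 20, pH 7.4. Incubated 2 h at 30°C; IC50 by non-linear regression, run at ≤0.001% or 2.0% final serum albumin.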

IC50 | SMILES
1500 pM | CC(C)C[C@H](NC(=O)[C@H](Cc1c[nH]c2ccccc12)NC(=O)[C@H](C)NC(=O)[C@@H](NC(=O)[C@H](Cc1ccccc1)NC(=O)[C@H](CCC(=O)O)NC(=O)[C@H](CCCNC(=N)N)NC(=O)[C@H](C)NC(=O)[C@H](CCCNC(=N)N)NC(=O)[C@H](CCCNC(=N)N)NC(=O)[C@H](CO)NC(=O)[C@H](CCC(=O)O)NC(=O)[C@H](CC(C)C)NC(=O)[C@H](Cc1ccc(O)cc1)NC(=O)[C@H](CCCCN)NC(=O)[C@H](CO)NC(=O)[C@H](CC(C)C)NC(=O)[C@H](CC(=O)O)NC(=O)[C@H](CO)NC(=O)[C@@H](NC(=O)[C@H](Cc1ccccc1)NC(=O)[C@@H](NC(=O)CNC(=O)[C@H](Cc1c[nH]cn1)NC(=O)C(C)(C)NC(=O)[C@@H](N)Cc1c[nH]cn1)[C@@H](C)O)[C@@H](C)O)C(C)C)C(=O)N[C@@H](CC(C)C)C(=O)N[C@@H](CCCCNC(=O)CC[C@H](NC(=O)COCCOCCNC(=O)COCCOCCNC(=O)CC[C@H](NC(=O)CC[C@H](NC(=O)CCCCCCCCCCCCCCCCC(=O)O)C(=O)O)C(=O)O)C(=O)O)C(=O)N[C@H](C(N)=O)[C@@H](C)O [Example 31, N^ε28-[(4S)-4-carboxy-4-[[2-[2-[2-[[2-[2-[2-[[(4S)-4-carboxy-4-[[(4S)-4-carboxy-4-(17-carboxyheptadecanoylamino)butanoyl]amino]butanoyl]amino]ethoxy]ethoxy]acetyl]amino]ethoxy]ethoxy]acetyl]amino]butanoyl]-[Aib2,His3,Leu10,Glu15,Arg20,Glu21,Ala24,Leu27, Lys28]-Glucagon amide] (H-H[Aib]HGTFTSDLSKYLESRRAREFVAWLLK([γGlu-AEEA-AEEA-γGlu-γGlu-C18 diacid])T-NH2; N-terminus assumed)
600 pM | CC(C)C[C@H](NC(=O)[C@H](Cc1ccc(O)cc1)NC(=O)[C@H](CCCCN)NC(=O)[C@H](CO)NC(=O)[C@H](CC(C)C)NC(=O)[C@H](CC(=O)O)NC(=O)[C@H](CO)NC(=O)[C@@H](NC(=O)[C@H](Cc1ccccc1)NC(=O)[C@@H](NC(=O)CNC(=O)[C@H](Cc1c[nH]cn1)NC(=O)C(C)(C)NC(=O)[C@@H](N)Cc1c[nH]cn1)[C@@H](C)O)[C@@H](C)O)C(=O)N[C@@H](CCC(=O)O)C(=O)N[C@@H](CO)C(=O)N[C@@H](CCCNC(=N)N)C(=O)N[C@@H](CCCNC(=N)N)C(=O)N[C@@H](C)C(=O)N[C@@H](CCCNC(=N)N)C(=O)N[C@@H](CCC(=O)O)C(=O)N[C@@H](Cc1ccccc1)C(=O)N[C@H](C(=O)N[C@@H](CCC(N)=O)C(=O)N[C@@H](Cc1c[nH]c2ccccc12)C(=O)N[C@@H](CC(C)C)C(=O)N[C@@H](CC(C)C)C(=O)N[C@@H](CCCCNC(=O)CC[C@H](NC(=O)CC[C@H](NC(=O)COCCOCCNC(=O)COCCOCCNC(=O)CC[C@H](NC(=O)CCCCCCCCCCCCCCCCC(=O)O)C(=O)O)C(=O)O)C(=O)O)C(=O)N[C@H](C(N)=O)[C@@H](C)O)C(C)C [Example 33, N^ε28-[(4S)-4-carboxy-4-[[(4S)-4-carboxy-4-[[2-[2-[2-[[2-[2-[2-[[(4S)-4-carboxy-4-(17-carboxyheptadecanoylamino)butanoyl]amino]ethoxy]ethoxy]acetyl]amino]ethoxy]ethoxy]acetyl]amino]butanoyl]amino]butanoyl]-[Aib2,His3,Leu10,Glu15,Arg20,Glu21,Leu27,Lys28]-Glucagon amide] (H-H[Aib]HGTFTSDLSKYLESRRAREFVQWLLK([γGlu-γGlu-AEEA-AEEA-γGlu-C18 diacid])T-NH2; N-terminus assumed)
200 pM | CC(C)C[C@H](NC(=O)[C@H](Cc1ccc(O)cc1)NC(=O)[C@H](CCCCN)NC(=O)[C@H](CO)NC(=O)[C@H](CC(C)C)NC(=O)[C@H](CC(=O)O)NC(=O)[C@H](CO)NC(=O)[C@@H](NC(=O)[C@H](Cc1ccccc1)NC(=O)[C@@H](NC(=O)CNC(=O)[C@H](Cc1c[nH]cn1)NC(=O)C(C)(C)NC(=O)[C@@H](N)Cc1c[nH]cn1)[C@@H](C)O)[C@@H](C)O)C(=O)N[C@@H](CCC(=O)O)C(=O)N[C@@H](CO)C(=O)N[C@@H](CCCNC(=N)N)C(=O)N[C@@H](CCCNC(=N)N)C(=O)N[C@@H](C)C(=O)N[C@@H](CCCNC(=N)N)C(=O)N[C@@H](CC(=O)O)C(=O)N[C@@H](Cc1ccccc1)C(=O)N[C@H](C(=O)N[C@@H](CCC(N)=O)C(=O)N[C@@H](Cc1c[nH]c2ccccc12)C(=O)N[C@@H](CC(C)C)C(=O)N[C@@H](CC(C)C)C(=O)N[C@@H](CCCCNC(=O)CNC(=O)[C@H](CO)NC(=O)[C@H](CCC(=O)O)NC(=O)CNC(=O)[C@H](CO)NC(=O)CC[C@H](NC(=O)CC[C@H](NC(=O)CCCCCCCCCCCCCCCCC(=O)O)C(=O)O)C(=O)O)C(=O)N[C@H](C(N)=O)[C@@H](C)O)C(C)C [Example 37, N^ε28-[2-[[(2S)-2-[[(2S)-4-carboxy-2-[[2-[[(2S)-2-[[(4S)-4-carboxy-4-[[(4S)-4-carboxy-4-(17-carboxyheptadecanoylamino)butanoyl]amino]butanoyl]amino]-3-hydroxypropanoyl]amino]acetyl]amino]butanoyl]amino]-3-hydroxypropanoyl]amino]acetyl]-[Aib2,His3,Leu10,Glu15, Arg20,Leu27,Lys28]-Glucagon amide] (I: H-H[Aib]HGTFTSDLSKYLESRRARDFVQWLLKT-NH2 / II: {C18 diacid-γGlu-γGlu}-SGESG; amide I:28-II:C; N-terminus assumed)
200 pM | CC(C)C[C@H](NC(=O)[C@H](Cc1ccc(O)cc1)NC(=O)[C@H](CCCCN)NC(=O)[C@H](CO)NC(=O)[C@H](CC(C)C)NC(=O)[C@H](CC(=O)O)NC(=O)[C@H](CO)NC(=O)[C@@H](NC(=O)[C@H](Cc1ccccc1)NC(=O)[C@@H](NC(=O)CNC(=O)[C@H](CCC(N)=O)NC(=O)C(C)(C)NC(=O)[C@@H](N)Cc1c[nH]cn1)[C@@H](C)O)[C@@H](C)O)C(=O)N[C@@H](CCC(=O)O)C(=O)N[C@@H](CO)C(=O)N[C@@H](CCCCN)C(=O)N[C@@H](CCCNC(=N)N)C(=O)N[C@@H](C)C(=O)N[C@@H](CCCNC(=N)N)C(=O)N[C@@H](CCC(=O)O)C(=O)N[C@@H](Cc1ccccc1)C(=O)N[C@H](C(=O)N[C@@H](CCC(N)=O)C(=O)N[C@@H](Cc1c[nH]c2ccccc12)C(=O)N[C@@H](CC(C)C)C(=O)N[C@@H](CC(C)C)C(=O)N[C@@H](CCCCNC(=O)CC[C@H](NC(=O)CC[C@H](NC(=O)[C@H](CO)NC(=O)[C@H](CCC(=O)O)NC(=O)[C@H](CO)NC(=O)CC[C@H](NC(=O)CC[C@H](NC(=O)CCCCCCCCCCCCCCCCC(=O)O)C(=O)O)C(=O)O)C(=O)O)C(=O)O)C(=O)N[C@H](C(N)=O)[C@@H](C)O)C(C)C [Example 52] (H-H[Aib]QGTFTSDLSKYLESKRAREFVQWLLK([γGlu-γGlu-Ser-Glu-Ser-γGlu-γGlu-C18 diacid])T-NH2; N-terminus assumed)
